In patent publication US20260250318A1, “COMPOSITIONS AND METHODS FOR CROSSING THE BLOOD BRAIN BARRIER” (VOYAGER THERAPEUTICS, INC., priority 2022, published 2026):

Tested on: brains, heart, liver, muscle, and DRG of the NHPs
Assay: Maturation of TTM-001 and TTM-002 capsids, NGS enrichment in NHP tissues
Type: in vivo
Description: This Example describes maturation of the AAV9 capsid variants, TTM-001 (SEQ ID NO: 981 (amino acid) and 983 (DNA), comprising SEQ ID NO: 941 (encoded by SEQ ID NO: 942)) and TTM-002 (SEQ ID NO: 982 (amino acid) and 984 (DNA), comprising SEQ ID NO: […] (encoded by SEQ ID NO: 944)) in NHPs to further enhance their transduction and biodistribution in the central nervous system as well as other tissues, and evolve the AAV capsid variants to provide further cross-species compatibility. Two approaches were used to mature the TTM-001 and TTM-002 capsid sequences in order to randomize and mutate within and around the peptide insert comprised within loop IV of the capsid variant. […] In the first maturation approach, sets of three contiguous amino acids were randomized across the mutagenesis region in the TTM-001 and TTM-002 sequences, which spanned from position 450 to position 466, numbered according to SEQ ID NO: 981 and 982. In the second maturation approach, mutagenic primers were used to introduce point mutations at a low frequency, scattered across the mutagenesis region in the TTM-001 and TTM-002 sequences ranging from position 449 to position 466, numbered according to SEQ ID NO: 981 and 982. AAV capsid variants arising from each maturation approach for TTM-001 and TTM-002 were pooled together, for subsequent testing and characterization in NHPs.
The library of pooled matured AAV capsid variants generated using the first maturation approach and the second maturation approach for the TTM-001 and TTM-002 AAV capsid variants were injected into two NHPs. […] Following RNA recovery and RT-PCR amplification, a systematic NGS enrichment analysis was performed to calculate the fold enrichment ratio relative to an AAV9 control, and the peptides comprised within the variants were identified.
Following the RNA recovery and NGS analysis from the second maturation approach, approximately 680,000 capsid variants were identified. The 680,000 matured capsid variants were then filtered based on samples with a raw virus count greater than 10 and a coefficient of variance (CV) of less than 1, which was calculated for each peptide across the brain samples taken from the two NHPs. […] Using this filtering criteria, this led to approximately 64,000 matured capsid variants.

[1] = NHP DRG, NGS, relative to AAV9 control
[2] = NHP brain, NGS, relative to AAV9 control
[3] = NHP heart, NGS, relative to AAV9 control
[4] = NHP liver DNA, NGS, relative to AAV9 control
[5] = NHP liver RNA, NGS, TTM-001 and TTM-002 matured AAV capsid variants, relative to AAV9 control
[6] = NHP muscle, NGS, relative to AAV9 control

Sequence	Fold Enrichment relative to AAV9, DRG (NHP) [1]	Fold Enrichment relative to AAV9, Brain (NHP) [2]	Fold Enrichment relative to AAV9, Heart (NHP) [3]	Fold Enrichment relative to AAV9, Liver DNA (NHP) [4]	Fold Enrichment relative to AAV9, Liver RNA (NHP) [5]	Fold Enrichment relative to AAV9, Muscle (NHP) [6]	Fold Enrichment relative to AAV9, DRG (NHP) (NGS fold-enrichment, DRG, NHP, relative to AAV9)	Fold Enrichment relative to AAV9, Brain (NHP) (NGS fold-enrichment, brain, NHP, relative to AAV9)	Fold Enrichment relative to AAV9, Heart (NHP) (NGS fold-enrichment, heart, NHP, relative to AAV9)	Fold Enrichment relative to AAV9, Liver DNA (NHP) (NGS fold-enrichment, liver DNA, NHP, relative to AAV9)	Fold Enrichment relative to AAV9, Liver RNA (NHP) (NGS fold-enrichment, liver RNA, NHP, relative to AAV9)	Fold Enrichment relative to AAV9, Muscle (NHP) (NGS fold-enrichment, muscle, NHP, relative to AAV9)
KTINGSGSPHSVRCNQQT	0.000 fold	0.000 fold	0.000 fold	3.912 fold	15.860 fold	0.000 fold	–	–	–	–	–	–
KTINGSGSPHSVRYNQQT	0.000 fold	0.000 fold	0.000 fold	1.413 fold	16.390 fold	0.000 fold	–	–	–	–	–	–
KTINGSGSPHSWAPNQQT	0.000 fold	0.000 fold	0.000 fold	1.789 fold	47.897 fold	0.000 fold	–	–	–	–	–	–
KTINGSGSPHSWLKNQQT	0.000 fold	0.000 fold	0.000 fold	0.603 fold	13.995 fold	0.000 fold	–	–	–	–	–	–
KTINGSGSPHSYAFNQQT	0.000 fold	0.000 fold	0.000 fold	1.742 fold	43.037 fold	0.000 fold	–	–	–	–	–	–
KTINGSGSPHSYARNQQT	0.000 fold	0.000 fold	0.000 fold	0.996 fold	11.131 fold	0.000 fold	–	–	–	–	–	–
KTINGSGSPHSYLVNQQT	0.000 fold	0.000 fold	0.000 fold	1.267 fold	17.766 fold	0.000 fold	–	–	–	–	–	–
KTINGSGSPHSYMRNQQT	0.000 fold	0.000 fold	0.000 fold	2.293 fold	20.007 fold	0.000 fold	–	–	–	–	–	–
KTINGSGSPHSYTRNQQT	0.000 fold	0.000 fold	0.000 fold	1.986 fold	14.535 fold	0.000 fold	–	–	–	–	–	–
KTINGSGSPHSYYSNQQT	–	–	–	–	–	–	0.000 fold	0.000 fold	0.000 fold	2.856 fold	10.680 fold	0.000 fold
KTINGSGSPHVNCQNQQT	0.000 fold	0.000 fold	0.000 fold	6.122 fold	30.010 fold	0.000 fold	–	–	–	–	–	–
KTINGSGSPHVPWQNQQT	0.000 fold	0.000 fold	0.000 fold	3.435 fold	25.294 fold	0.000 fold	–	–	–	–	–	–
KTINGSGSPHVYHQNQQT	0.000 fold	0.000 fold	0.000 fold	1.733 fold	14.770 fold	0.000 fold	–	–	–	–	–	–
KTINGSGSPHVYYQNQQT	0.000 fold	0.944 fold	0.246 fold	2.173 fold	53.294 fold	5.268 fold	–	–	–	–	–	–
KTINGSGSPHWSYQNQQT	0.000 fold	0.000 fold	0.000 fold	3.751 fold	28.607 fold	0.000 fold	–	–	–	–	–	–
KTINGSGSPHWVAQNQQT	0.000 fold	0.000 fold	0.000 fold	3.634 fold	11.703 fold	0.000 fold	–	–	–	–	–	–
KTINGSGSPHWVPQNQQT	0.000 fold	0.000 fold	0.000 fold	3.219 fold	22.907 fold	0.000 fold	–	–	–	–	–	–
KTINGSGSPHYGIQNQQT	0.000 fold	0.000 fold	0.000 fold	1.076 fold	30.908 fold	0.000 fold	–	–	–	–	–	–
KTINGSGSPHYRYQNQQT	0.000 fold	0.000 fold	0.000 fold	1.027 fold	14.107 fold	0.000 fold	–	–	–	–	–	–
KTINGSISPHCPAQNQQT	0.000 fold	0.000 fold	0.000 fold	0.556 fold	24.932 fold	0.000 fold	–	–	–	–	–	–
KTINGSLSPHFWAQNQQT	0.000 fold	0.000 fold	0.000 fold	2.041 fold	43.190 fold	0.000 fold	–	–	–	–	–	–
KTINGSRSPHAWAQNQQT (peptide inserted in AAV capsid)	0.000 fold	0.000 fold	0.000 fold	6.838 fold	31.146 fold	0.000 fold	–	–	–	–	–	–
KTINGSSSPHRCAQNQQT (peptide inserted in AAV capsid)	0.000 fold	0.000 fold	0.000 fold	1.829 fold	28.887 fold	0.000 fold	–	–	–	–	–	–
KTINGSSSPHWMAQNQQT (peptide inserted in AAV capsid)	0.000 fold	0.000 fold	0.000 fold	2.390 fold	16.635 fold	0.000 fold	–	–	–	–	–	–
